Measured values: ChEMBL document CHEMBL5380860, “Design, Synthesis, and Antitumor Activity of Potent and Selective EGFR L858R/T790M Inhibitors and Identification of a Combination Therapy to Overcome Acquired Resistance in Models of Non-small-cell Lung Cancer” (J Med Chem, 2023)
pIC50: −log10 of the molar value. Activity calls are given as the source filed them. No cut-off for these calls is given here.

Experiments:
A549 = assay: Inhibition of clonogenicity in human A549 cells assessed as inhibition of colony formation at 0.1 to 10 uM incubated for 14 days by crystal violet staining based analysis; format: toxicity, cell-based; details: a549, 336 h, dose 0.1-10 µM, time 14 day
[1] = test system: Epidermal growth factor receptor (Homo sapiens), P00533 [UNDEFINED MUTATION]; assay: Inhibition of EGFR exon del19 mutant in human HCC827 cells assessed as inhibition of EGF-induced EGFR phosphorylation at Tyr1068 residue at 1 uM pretreated with compound for 4 hrs followed by incubation with EGF for 10 mins by western blot analysis; format: cell-based; details: time 250.0 min
[2] = target: Epidermal growth factor receptor (Homo sapiens, UniProt P00533, EX19DEL); assay: Inhibition of human EGFR exon del19 mutant by KINOMEscan analysis
[3] = GSH reactivity in PBS buffer assessed as half life by HPLC analysis; format: ADME; details: PBS buffer with GSH
A-431 [4] = assay: Induction of apoptosis in human A-431 cells assessed as increase in caspase-3/7 activity at 0.1 to 10 uM incubated for 24 hrs by Caspase-Glo reagent based luminescence analysis; format: toxicity, cell-based; details: a-431, 24 h, dose 0.1-10 µM
NCI-H1975 [5] = assay: Inhibition of cell migration in human NCI-H1975 cells at 0.1 uM incubated for 48 hrs by scratch wound healing assay; format: functional, cell-based
[6] = target: Proto-oncogene tyrosine-protein kinase Src (Homo sapiens, UniProt P12931); assay: Inhibition of human wild type partial length Src kinase (L240 to L536 residues) expressed in bacterial expression system by KINOMEscan analysis
Mus musculus [7] = assay: In vivo inhibition of EGFR L858R/T790M mutant in ip dosed NCI-H1975 cells xenografted BALB/c mouse assessed as inhibition of ERK-1/2 phosphorylation in tumor by immunoblot analysis; format: functional, organism-based; details: dose 5-20 mg/kg/day
[8] = test system: Epidermal growth factor receptor (Homo sapiens), P00533 [T790M]; assay: Inhibition of human partial length EGFR (R669 to G1022 residues) T790M mutant expressed in mammalian expression system assessed as residual activity at 1 uM by KINOMEscan analysis
HCC827 [9] = assay: Induction of apoptosis in human HCC827 cells assessed as induction of PARP cleavage pretreated with compound for 4 hrs followed by incubation with EGF for 10 mins by western blot analysis; format: functional, cell-based; details: dose 0.1-10 µM, time 250.0 min
[10] = test system: Epidermal growth factor receptor (Homo sapiens), P00533 [L858R,T790M]; assay: (§1) Inhibition of EGFR L858R/T790M mutant in N-(3-((6-Fluoro-2-((4-(4-methylpiperazin-1-yl)phenyl)amino)quinazolin-4-yl)amino)phenyl)acrylamide-resistant human NCI-H1975 cells assessed as inhibition of EGF-induced EGFR phosphorylation at Tyr1068 residue pretreated with compound for 4 hrs followed by incubation with EGF for 10 mins by western blot analysis; format: cell-based; details: time 250.0 min
[11] = test system: Epidermal growth factor receptor (Homo sapiens), P00533 [L858R,T790M]; assay: as §1, with “EGF-induced AKT” for “EGF-induced EGFR”, “at Ser473” for “at Tyr1068”, “compound and ACK1 inhibitor, AIM-100” for “compound”; format: cell-based; details: time 250.0 min
[12] = target: Epidermal growth factor receptor (Homo sapiens, UniProt P00533); assay: Inhibition of wild type EGFR in human A-431 cells assessed as inhibition of EGF-induced ERK1/2 phosphorylation at 0.1 to 10 uM pretreated with compound for 4 hrs followed by incubation with EGF for 10 mins by western blot analysis; format: toxicity, cell-based; details: a-431, 4.167 h, dose 0.1-10 µM, time 250 min
NCI-H1975 [13] = assay: Antitumor activity against N-(3-((6-Fluoro-2-((4-(4-methylpiperazin-1-yl)phenyl)amino)quinazolin-4-yl)amino)phenyl)acrylamide-resistant human NCI-H1975 cells xenografted in BALB/c mouse assessed as inhibition of tumor growth at 20 mg/kg/day, ip; format: functional, organism-based
[14] = test system: Epidermal growth factor receptor (Homo sapiens), P00533 [L858R,T790M]; assay: as §1, with “EGF-induced AKT” for “EGF-induced EGFR”, “at Ser473” for “at Tyr1068”, “compound and ACK1 inhibitor, Dasatinib” for “compound”; format: cell-based; details: time 250.0 min
NCI-H1975 [15] = assay: Antitumor activity against N-(3-((6-Fluoro-2-((4-(4-methylpiperazin-1-yl)phenyl)amino)quinazolin-4-yl)amino)phenyl)acrylamide-resistant human NCI-H1975 cells xenografted in BALB/c mouse assessed as inhibition of tumor weight at 20 mg/kg/day, ip in presence of ACK1 inhibitor, dasatinib; format: functional, organism-based
Mus musculus [16] = assay: In vivo inhibition of EGFR L858R/T790M mutant in NCI-H1975 cells xenografted BALB/c mouse assessed as inhibition of ERK-1/2 phosphorylation in tumor at 20 mg/kg/day, ip by immunoblot analysis; format: functional, organism-based
A-431 [17] = assay: Induction of apoptosis in human A-431 cells assessed as induction of caspase-3 cleavage at 0.1 to 10 uM pretreated with compound for 4 hrs followed by incubation with EGF for 10 mins by western blot analysis; format: toxicity, cell-based; details: a-431, 4.167 h, dose 0.1-10 µM, time 250 min
[18] = test system: Epidermal growth factor receptor (Homo sapiens), P00533 [L858R,T790M]; assay: Inhibition of human partial length EGFR (R669 to V1011 residues) L858R/T790M mutant expressed in mammalian expression system assessed as residual activity at 1 uM by KINOMEscan analysis
[19] = Selectivity ratio of IC50 for cytotoxicity against human A549 cells harboring wild type EGFR to IC50 for antiproliferative activity against human NCI-H1975 cells harboring EGFR L858R/T790M mutant; format: toxicity, cell-based; details: read-out: Ratio IC50
[20] = Half life in Sprague-Dawley rat at 1 mg/kg, iv by LC-MS analysis; format: ADME, organism-based; details: in vivo
[21] = (§2) Toxicity in BALB/c mouse xenografted with N-(3-((6-Fluoro-2-((4-(4-methylpiperazin-1-yl)phenyl)amino)quinazolin-4-yl)amino)phenyl)acrylamide-resistant human NCI-H1975 cells assessed as changes in heart morphological changes at 20 mg/kg/day, ip in presence of ACK1 inhibitor, dasatinib by hematoxylin-eosin staining based analysis; format: organism-based; details: in vivo
[22] = target: Epidermal growth factor receptor (Homo sapiens, UniProt P00533, L858R); assay: Inhibition of human partial length EGFR (R669 to V1011 residues) L858R mutant expressed in bacterial expression system by KINOMEscan analysis
Mus musculus [23] = assay: In vivo inhibition of EGFR L858R/T790M mutant in NCI-H1975 cells xenografted BALB/c mouse assessed as inhibition of EGFR phosphorylation at Tyr1068 residue at 5 to 20 mg/kg/day, ip in tumor by immunohistochemistry; format: functional, organism-based; details: dose 5-20 mg/kg/day
HCC827 [24] = assay: Inhibition of clonogenicity in human HCC827 cells assessed as inhibition of colony formation incubated for 14 days by crystal violet staining based analysis; format: functional, cell-based; details: dose 0.1-10 µM, time 14.0 day
[25] = as §2, with “kidney” for “heart”; format: organism-based; details: in vivo
[26] = AUC (0 to t) in Sprague-Dawley rat at 1 mg/kg, iv by LC-MS analysis; format: ADME, organism-based; design: dose 1 mg/kg, route iv; details: in vivo
[27] = Clearance in Sprague-Dawley rat at 1 mg/kg, iv by LC-MS analysis; format: ADME, organism-based; details: in vivo
Mus musculus [28] = species on record: Mus musculus; details: BALB/c, dose 10.0 mg/kg/day, route po

Proto-oncogene tyrosine-protein kinase Src, sequence (P12931 2-536 limits assumed): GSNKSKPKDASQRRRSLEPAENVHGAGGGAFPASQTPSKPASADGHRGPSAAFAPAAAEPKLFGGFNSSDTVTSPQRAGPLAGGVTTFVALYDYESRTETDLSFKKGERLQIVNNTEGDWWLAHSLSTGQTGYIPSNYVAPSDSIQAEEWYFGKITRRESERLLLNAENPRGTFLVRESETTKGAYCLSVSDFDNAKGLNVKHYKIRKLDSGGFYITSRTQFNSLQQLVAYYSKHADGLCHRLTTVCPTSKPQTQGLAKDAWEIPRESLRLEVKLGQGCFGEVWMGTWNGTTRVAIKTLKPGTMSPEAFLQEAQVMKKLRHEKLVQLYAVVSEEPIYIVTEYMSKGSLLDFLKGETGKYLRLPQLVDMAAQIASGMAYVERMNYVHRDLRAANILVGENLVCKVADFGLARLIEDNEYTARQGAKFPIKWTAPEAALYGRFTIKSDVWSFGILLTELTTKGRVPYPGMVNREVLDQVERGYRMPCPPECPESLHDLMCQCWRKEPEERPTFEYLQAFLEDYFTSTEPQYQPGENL

C=CC(=O)Nc1cccc(Nc2nc(Nc3ccc(N4CCN(C)CC4)cc3)nc3ccc(F)cc23)c1
Activity (A549): Non-Toxic
inhibition [1]: Active
pIC50 [2]: 8.89
half-life [3]: 72.9 h
Activity (A-431 [4]): Non-Toxic
inhibition (NCI-H1975 [5]): Active
pIC50 [6]: 6.22
inhibition (Mus musculus [7]): Dose-Dependent Effect
Activity [8]: 3%
Activity (HCC827 [9]): Dose-Dependent Effect
inhibition [10]: Active
inhibition [11]: Active
inhibition (INH) [12]: Not Active
Activity (NCI-H1975 [13]): inactive
inhibition [14]: Active
Activity (NCI-H1975 [15]): Active
inhibition (Mus musculus [16]): Active
Activity (A-431 [17]): Non-Toxic
Activity [18]: 1%
selectivity ratio [19]: 211
half-life [20]: 1.76 h
Activity [21]: Non-Toxic
pIC50 [22]: 8.68
inhibition (Mus musculus [23]): Active
inhibition (HCC827 [24]): Dose-Dependent Effect
Activity [25]: Non-Toxic
AUC(0-t) [26]: 1040 ng·h/mL
clearance [27]: 16.1 mL/min/kg

C=CC(=O)Nc1cc(Nc2nccc(-c3cn(C)c4ccccc34)n2)c(OC)cc1N(C)CCN(C)C [OSIMERTINIB]
inhibition (Mus musculus [28]): Active
